ChEMBL document CHEMBL4507310, “Data for DCP probe A-1211212” (2021)

Legend:
[1] = molecular target: Sulfonylurea receptors; K-ATP channels (Rattus norvegicus) (UniProt Q63563+P70673+Q63664+Q09429); experiment: KATP channel Eurofins-Cerep binding assay; type: protein-complex assay; set-up: ligand concentration 0.1 nM; conditions: filed as antagonist, Compound concentration 10.0 uM
[2] = molecular target: Peroxisome proliferator-activated receptor gamma (Homo sapiens) (UniProt P37231); experiment: PPARgamma (h) Eurofins-Cerep binding assay; set-up: ligand concentration 5 nM; conditions: filed as agonist, Compound concentration 10.0 uM
[3] = molecular target: Tyrosine-protein kinase receptor Tie-1 (Homo sapiens) (UniProt P35590); conditions: Compound concentration 1000.0 nM
[4] = molecular target: Serine/threonine-protein kinase NIM1 (Homo sapiens) (UniProt Q8IY84); conditions: Compound concentration 1000.0 nM
[5] = molecular target: Ephrin type-B receptor 3 (Homo sapiens) (UniProt P54753); conditions: Compound concentration 1000.0 nM
[6] = system: Phosphatidylinositol 4,5-bisphosphate 3-kinase catalytic subunit alpha isoform (Homo sapiens), P42336 [C420R]; conditions: Compound concentration 1000.0 nM
[7] = molecular target: Serine/threonine-protein kinase DCLK1 (Homo sapiens) (UniProt O15075); conditions: Compound concentration 1000.0 nM
[8] = molecular target: SRSF protein kinase 1 (Homo sapiens) (UniProt Q96SB4); conditions: Compound concentration 1000.0 nM
[9] = molecular target: Leukocyte tyrosine kinase receptor (Homo sapiens) (UniProt P29376); conditions: Compound concentration 1000.0 nM
[10] = system: Receptor-type tyrosine-protein kinase FLT3 (Homo sapiens), P36888 [R834Q]; conditions: Compound concentration 1000.0 nM
[11] = molecular target: G protein-coupled receptor kinase 4 (Homo sapiens) (UniProt P32298); conditions: Compound concentration 1000.0 nM
[12] = molecular target: Serine/threonine-protein kinase PLK4 (Homo sapiens) (UniProt O00444); conditions: Compound concentration 1000.0 nM
[13] = molecular target: Serine/threonine-protein kinase RIO1 (Homo sapiens) (UniProt Q9BRS2); conditions: Compound concentration 1000.0 nM
[14] = molecular target: Serine/threonine-protein kinase Sgk2 (Homo sapiens) (UniProt Q9HBY8); conditions: Compound concentration 1000.0 nM
[15] = molecular target: Serine/threonine-protein kinase 10 (Homo sapiens) (UniProt O94804); conditions: Compound concentration 1000.0 nM
[16] = molecular target: Calcium/calmodulin-dependent protein kinase type 1G (Homo sapiens) (UniProt Q96NX5); conditions: Compound concentration 1000.0 nM
[17] = molecular target: Rho-associated protein kinase 2 (Homo sapiens) (UniProt O75116); conditions: Compound concentration 1000.0 nM
[18] = molecular target: Aurora kinase B (Homo sapiens) (UniProt Q96GD4); conditions: Compound concentration 1000.0 nM
[19] = molecular target: Serine/threonine-protein kinase NLK (Homo sapiens) (UniProt Q9UBE8); conditions: Compound concentration 1000.0 nM
[20] = system: Tyrosine-protein kinase ABL1 (Homo sapiens), P00519 [T315I]; conditions: Compound concentration 1000.0 nM
[21] = molecular target: T1, 5-hydroxytryptamine receptor 3A (Homo sapiens) (UniProt P46098); conditions: Compound concentration 10.0 uM
T1 sequence (whole entry): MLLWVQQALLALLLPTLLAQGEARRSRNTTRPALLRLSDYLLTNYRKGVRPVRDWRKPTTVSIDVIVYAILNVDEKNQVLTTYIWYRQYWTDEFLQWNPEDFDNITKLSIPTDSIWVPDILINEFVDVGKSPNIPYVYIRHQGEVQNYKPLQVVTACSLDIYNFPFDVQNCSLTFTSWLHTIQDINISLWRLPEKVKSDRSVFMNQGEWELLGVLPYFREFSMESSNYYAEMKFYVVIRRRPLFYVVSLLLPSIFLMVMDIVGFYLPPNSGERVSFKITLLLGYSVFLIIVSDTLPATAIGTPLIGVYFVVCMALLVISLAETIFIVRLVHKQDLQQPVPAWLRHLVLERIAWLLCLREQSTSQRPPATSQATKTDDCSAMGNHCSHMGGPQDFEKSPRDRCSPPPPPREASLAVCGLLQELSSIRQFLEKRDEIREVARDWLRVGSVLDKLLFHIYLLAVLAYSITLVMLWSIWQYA

[22] = molecular target: Cyclin-dependent kinase 4 (Homo sapiens) (UniProt P11802); conditions: Compound concentration 1000.0 nM
[23] = molecular target: Receptor-interacting serine/threonine-protein kinase 1 (Homo sapiens) (UniProt Q13546); conditions: Compound concentration 1000.0 nM
[24] = molecular target: Acetylcholinesterase (Homo sapiens) (UniProt P22303); experiment: Acetylcholinesterase (h) Eurofins-Cerep enzyme and uptake assay; conditions: Compound concentration 10.0 uM
[25] = molecular target: Sigma intracellular receptor 2 (Homo sapiens, UniProt Q5BJF2); conditions: Compound concentration 10.0 uM
[26] = molecular target: Tyrosine-protein kinase SYK (Homo sapiens) (UniProt P43405); conditions: Compound concentration 1000.0 nM
[27] = system: Hepatocyte growth factor receptor (Homo sapiens), P08581 [Y1235D]; conditions: Compound concentration 1000.0 nM
[28] = molecular target: Type-2 angiotensin II receptor (Homo sapiens) (UniProt P50052); experiment: AT2 (h) Eurofins-Cerep binding assay; set-up: ligand concentration 0.01 nM; conditions: filed as agonist, Compound concentration 10.0 uM
[29] = molecular target: Serine/threonine-protein kinase PRP4 homolog (Homo sapiens) (UniProt Q13523); conditions: Compound concentration 1000.0 nM
[30] = molecular target: Ribosomal protein S6 kinase alpha-5 (Homo sapiens) (UniProt O75582); conditions: Compound concentration 1000.0 nM
[31] = system: NCI-H146; experiment: CellTiter-Glo Luminescent Cell Viability Assay (BCL-XL dependent cell line H146); type: functional, cell-based; conditions: Homo sapiens
[32] = molecular target: Calcitonin-gene-related peptide receptor, CALCRL/RAMP1 (Homo sapiens) (UniProt O60894+Q16602); experiment: CGRP (h) Eurofins-Cerep binding assay; type: protein-complex assay; set-up: ligand concentration 0.03 nM; conditions: filed as agonist, Compound concentration 10.0 uM
[33] = molecular target: 1-phosphatidylinositol 3-phosphate 5-kinase (Homo sapiens) (UniProt Q9Y2I7); conditions: Compound concentration 1000.0 nM
[34] = molecular target: Inhibitor of nuclear factor kappa-B kinase subunit beta (Homo sapiens) (UniProt O14920); conditions: Compound concentration 1000.0 nM
[35] = system: Epidermal growth factor receptor (Homo sapiens), P00533 [L861Q]; conditions: Compound concentration 1000.0 nM
[36] = molecular target: Insulin receptor (Homo sapiens) (UniProt P06213); conditions: Compound concentration 1000.0 nM
[37] = molecular target: Fibroblast growth factor receptor 2 (Homo sapiens) (UniProt P21802); conditions: Compound concentration 1000.0 nM
[38] = molecular target: Activated CDC42 kinase 1 (Homo sapiens) (UniProt Q07912); conditions: Compound concentration 1000.0 nM
Sequence of Activated CDC42 kinase 1 (Homo sapiens) (Q07912 whole entry, looked up): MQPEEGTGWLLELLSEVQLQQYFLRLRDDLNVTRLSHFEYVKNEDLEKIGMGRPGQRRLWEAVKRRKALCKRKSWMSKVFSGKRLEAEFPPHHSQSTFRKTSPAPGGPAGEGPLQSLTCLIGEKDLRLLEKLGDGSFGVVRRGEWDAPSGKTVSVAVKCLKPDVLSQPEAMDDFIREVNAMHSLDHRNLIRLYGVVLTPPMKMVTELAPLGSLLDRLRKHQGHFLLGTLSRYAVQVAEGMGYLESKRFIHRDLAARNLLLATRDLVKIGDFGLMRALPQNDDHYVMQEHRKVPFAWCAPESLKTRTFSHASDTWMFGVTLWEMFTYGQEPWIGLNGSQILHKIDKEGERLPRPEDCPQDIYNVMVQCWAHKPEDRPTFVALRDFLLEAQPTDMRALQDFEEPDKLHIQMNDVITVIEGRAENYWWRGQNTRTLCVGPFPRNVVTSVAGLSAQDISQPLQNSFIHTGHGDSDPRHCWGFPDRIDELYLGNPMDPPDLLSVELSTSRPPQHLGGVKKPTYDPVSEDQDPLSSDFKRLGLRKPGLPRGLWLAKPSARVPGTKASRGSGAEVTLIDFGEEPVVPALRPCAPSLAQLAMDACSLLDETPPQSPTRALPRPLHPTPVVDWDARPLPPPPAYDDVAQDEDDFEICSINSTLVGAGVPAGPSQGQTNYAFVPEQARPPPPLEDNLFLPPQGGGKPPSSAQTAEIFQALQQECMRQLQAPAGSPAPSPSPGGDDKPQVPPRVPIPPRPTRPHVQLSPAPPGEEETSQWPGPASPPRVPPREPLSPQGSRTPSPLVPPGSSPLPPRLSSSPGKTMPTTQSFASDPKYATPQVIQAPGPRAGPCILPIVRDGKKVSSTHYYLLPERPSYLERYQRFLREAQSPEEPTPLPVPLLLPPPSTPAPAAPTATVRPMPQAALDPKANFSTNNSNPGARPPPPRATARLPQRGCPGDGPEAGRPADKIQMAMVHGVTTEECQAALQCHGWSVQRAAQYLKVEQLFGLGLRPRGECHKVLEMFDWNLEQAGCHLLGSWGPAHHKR

Sequence of Sulfonylurea receptors; K-ATP channels (Rattus norvegicus) (P70673 whole entry, looked up): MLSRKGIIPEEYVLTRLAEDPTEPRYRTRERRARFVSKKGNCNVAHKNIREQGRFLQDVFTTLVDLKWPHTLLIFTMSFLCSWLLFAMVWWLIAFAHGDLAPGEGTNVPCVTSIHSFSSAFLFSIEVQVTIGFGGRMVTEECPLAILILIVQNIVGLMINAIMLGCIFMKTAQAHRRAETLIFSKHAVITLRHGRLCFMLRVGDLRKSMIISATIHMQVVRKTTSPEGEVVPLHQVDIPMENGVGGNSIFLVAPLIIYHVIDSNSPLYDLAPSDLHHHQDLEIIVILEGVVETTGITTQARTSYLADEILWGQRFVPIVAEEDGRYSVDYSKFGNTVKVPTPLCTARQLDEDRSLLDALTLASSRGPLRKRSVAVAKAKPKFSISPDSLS
Sequence of Sulfonylurea receptors; K-ATP channels (Rattus norvegicus) (Q09429 whole entry, looked up): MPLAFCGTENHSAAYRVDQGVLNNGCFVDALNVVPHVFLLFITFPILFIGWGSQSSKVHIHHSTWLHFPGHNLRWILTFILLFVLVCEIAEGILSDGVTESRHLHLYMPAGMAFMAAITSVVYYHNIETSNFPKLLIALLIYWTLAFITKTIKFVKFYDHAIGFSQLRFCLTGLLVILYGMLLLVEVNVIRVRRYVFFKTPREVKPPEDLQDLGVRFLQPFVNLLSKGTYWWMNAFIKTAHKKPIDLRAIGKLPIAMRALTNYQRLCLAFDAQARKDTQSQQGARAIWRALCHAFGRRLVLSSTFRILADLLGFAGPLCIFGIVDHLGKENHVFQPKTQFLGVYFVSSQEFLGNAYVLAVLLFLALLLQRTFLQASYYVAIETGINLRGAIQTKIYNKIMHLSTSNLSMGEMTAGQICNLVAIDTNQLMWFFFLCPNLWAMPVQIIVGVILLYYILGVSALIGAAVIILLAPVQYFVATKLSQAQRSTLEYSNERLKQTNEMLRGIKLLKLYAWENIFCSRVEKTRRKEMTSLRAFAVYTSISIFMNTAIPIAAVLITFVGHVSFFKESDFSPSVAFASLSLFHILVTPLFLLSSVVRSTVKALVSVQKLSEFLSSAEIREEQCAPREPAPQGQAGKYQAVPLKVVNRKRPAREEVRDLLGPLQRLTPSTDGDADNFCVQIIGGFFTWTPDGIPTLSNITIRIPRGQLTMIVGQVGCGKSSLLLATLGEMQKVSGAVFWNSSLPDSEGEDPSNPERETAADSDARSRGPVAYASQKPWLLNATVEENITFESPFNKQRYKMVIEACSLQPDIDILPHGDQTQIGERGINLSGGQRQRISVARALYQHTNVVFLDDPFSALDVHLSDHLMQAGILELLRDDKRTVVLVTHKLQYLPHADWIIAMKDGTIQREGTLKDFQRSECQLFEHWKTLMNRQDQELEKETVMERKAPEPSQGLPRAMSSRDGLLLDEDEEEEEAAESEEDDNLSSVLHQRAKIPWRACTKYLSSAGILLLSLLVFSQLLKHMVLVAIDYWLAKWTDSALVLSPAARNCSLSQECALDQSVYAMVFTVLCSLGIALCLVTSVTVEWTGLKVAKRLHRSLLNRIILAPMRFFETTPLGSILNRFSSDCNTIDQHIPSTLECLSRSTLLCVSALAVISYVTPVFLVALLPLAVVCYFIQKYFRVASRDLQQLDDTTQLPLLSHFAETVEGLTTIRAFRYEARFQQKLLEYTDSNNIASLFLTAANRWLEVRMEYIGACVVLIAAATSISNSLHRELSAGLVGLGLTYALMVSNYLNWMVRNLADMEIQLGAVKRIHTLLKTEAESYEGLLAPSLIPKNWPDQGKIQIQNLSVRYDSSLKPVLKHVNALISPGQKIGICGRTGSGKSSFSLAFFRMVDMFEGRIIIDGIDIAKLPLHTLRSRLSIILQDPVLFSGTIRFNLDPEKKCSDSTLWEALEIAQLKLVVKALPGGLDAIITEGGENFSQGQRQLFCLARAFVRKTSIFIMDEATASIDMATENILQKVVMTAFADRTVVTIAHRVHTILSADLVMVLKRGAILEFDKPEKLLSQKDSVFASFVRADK
Sequence of Sulfonylurea receptors; K-ATP channels (Rattus norvegicus) (Q63563 whole entry, looked up): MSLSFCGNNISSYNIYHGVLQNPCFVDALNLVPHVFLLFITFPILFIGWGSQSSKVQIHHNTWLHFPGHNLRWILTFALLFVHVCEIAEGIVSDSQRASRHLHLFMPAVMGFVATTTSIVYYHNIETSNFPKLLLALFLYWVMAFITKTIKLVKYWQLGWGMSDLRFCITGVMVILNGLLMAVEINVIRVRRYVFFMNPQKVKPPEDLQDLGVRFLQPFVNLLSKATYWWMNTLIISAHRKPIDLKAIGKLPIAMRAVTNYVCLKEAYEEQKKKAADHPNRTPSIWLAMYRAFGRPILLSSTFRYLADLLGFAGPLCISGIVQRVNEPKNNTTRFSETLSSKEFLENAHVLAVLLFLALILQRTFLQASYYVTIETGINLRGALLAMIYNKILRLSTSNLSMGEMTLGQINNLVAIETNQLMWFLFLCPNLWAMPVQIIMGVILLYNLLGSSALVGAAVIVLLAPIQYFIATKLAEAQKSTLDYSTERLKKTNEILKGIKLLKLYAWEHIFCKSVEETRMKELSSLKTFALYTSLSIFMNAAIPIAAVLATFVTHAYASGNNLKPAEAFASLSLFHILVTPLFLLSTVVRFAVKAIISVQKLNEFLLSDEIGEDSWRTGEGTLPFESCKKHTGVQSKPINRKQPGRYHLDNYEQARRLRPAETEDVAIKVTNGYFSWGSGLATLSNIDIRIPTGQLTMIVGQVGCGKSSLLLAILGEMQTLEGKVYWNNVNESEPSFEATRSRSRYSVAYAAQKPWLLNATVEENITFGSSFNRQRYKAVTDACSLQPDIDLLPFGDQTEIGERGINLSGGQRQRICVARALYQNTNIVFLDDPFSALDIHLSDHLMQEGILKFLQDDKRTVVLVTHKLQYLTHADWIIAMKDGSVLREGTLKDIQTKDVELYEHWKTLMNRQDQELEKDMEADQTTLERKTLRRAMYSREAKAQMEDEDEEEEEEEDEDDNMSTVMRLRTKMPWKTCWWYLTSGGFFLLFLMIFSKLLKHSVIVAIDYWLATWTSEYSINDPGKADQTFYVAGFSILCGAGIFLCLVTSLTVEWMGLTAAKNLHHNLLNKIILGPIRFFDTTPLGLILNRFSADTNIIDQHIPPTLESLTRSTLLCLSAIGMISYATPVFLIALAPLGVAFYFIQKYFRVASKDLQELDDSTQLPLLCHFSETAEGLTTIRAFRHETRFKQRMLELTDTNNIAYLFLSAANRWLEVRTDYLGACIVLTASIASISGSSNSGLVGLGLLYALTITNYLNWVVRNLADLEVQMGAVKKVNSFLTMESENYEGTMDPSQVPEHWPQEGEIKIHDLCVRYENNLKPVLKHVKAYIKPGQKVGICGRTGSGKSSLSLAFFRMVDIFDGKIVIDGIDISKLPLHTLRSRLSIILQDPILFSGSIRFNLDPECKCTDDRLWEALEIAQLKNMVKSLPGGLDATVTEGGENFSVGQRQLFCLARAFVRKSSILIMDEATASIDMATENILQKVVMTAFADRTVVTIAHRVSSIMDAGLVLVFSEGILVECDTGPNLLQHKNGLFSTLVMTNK
Sequence of Sulfonylurea receptors; K-ATP channels (Rattus norvegicus) (Q63664 whole entry, looked up): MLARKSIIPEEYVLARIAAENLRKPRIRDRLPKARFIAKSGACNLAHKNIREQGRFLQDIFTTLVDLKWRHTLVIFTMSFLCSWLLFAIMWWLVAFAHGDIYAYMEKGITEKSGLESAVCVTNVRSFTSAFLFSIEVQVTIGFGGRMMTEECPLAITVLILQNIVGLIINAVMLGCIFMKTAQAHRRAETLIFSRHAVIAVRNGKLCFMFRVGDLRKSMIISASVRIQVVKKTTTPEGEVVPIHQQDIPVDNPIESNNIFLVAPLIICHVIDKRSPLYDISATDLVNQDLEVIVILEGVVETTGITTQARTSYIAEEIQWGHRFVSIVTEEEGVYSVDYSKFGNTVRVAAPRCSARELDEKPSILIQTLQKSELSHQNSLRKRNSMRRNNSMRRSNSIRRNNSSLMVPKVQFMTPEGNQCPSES

| Structure (SMILES) | % Inhibition of Control Specific Binding (Mean n=2) [1] [%] | % Inhibition of Control Specific Binding (Mean n=2) [2] [%] | residual activity [3] [%] | residual activity [4] [%] | residual activity [5] [%] | residual activity [6] [%] | residual activity [7] [%] | residual activity [8] [%] | residual activity [9] [%] | residual activity [10] [%] | residual activity [11] [%] | residual activity [12] [%] | residual activity [13] [%] | residual activity [14] [%] | residual activity [15] [%] | residual activity [16] [%] | residual activity [17] [%] | residual activity [18] [%] | residual activity [19] [%] | residual activity [20] [%] | further results |
| --- | --- | --- | --- | --- | --- | --- | --- | --- | --- | --- | --- | --- | --- | --- | --- | --- | --- | --- | --- | --- | --- |
| O=C(NS(=O)(=O)c1ccc(NCC2CCOCC2)c([N+](=O)[O-])c1)c1ccc(N2CCN(Cc3ccc(C(F)(F)F)cc3-c3ccc(Cl)cc3)CC2)cc1Oc1cnc2[nH]ccc2c1 [A-1210227] | 9.9 | 9.3 | 100 | 94 | 100 | 81 | 100 | 100 | 100 | 80 | 100 | 98 | 100 | 100 | 100 | 92 | 100 | 100 | 93 | 100 | inhibition [21]: 8.67%; residual activity [22]: 100%; residual activity [23]: 99%; % Inhibition of Control Values (Mean n=2) [24]: 11%; inhibition [25]: 54.3%; residual activity [26]: 99%; residual activity [27]: 98%; % Inhibition of Control Specific Binding (Mean n=2) [28]: 5.3%; residual activity [29]: 100%; residual activity [30]: 97%; EC50 [31]: > 5 µM (not active); % Inhibition of Control Specific Binding (Mean n=2) [32]: -57.7%; residual activity [33]: 100%; residual activity [34]: 74%; residual activity [35]: 93%; residual activity [36]: 89%; residual activity [37]: 100%; residual activity [38]: 100% |
| CO[C@H]1CC[C@H](CNc2ccc(S(=O)(=O)NC(=O)c3ccc(N4CCN(CC5=C(c6ccc(Cl)cc6)CC(C)(C)CC5)CC4)cc3Oc3cnc4[nH]ccc4c3)cc2[N+](=O)[O-])CC1 [A-1211212] | 9.7 | 28.5 | 100 | 90 | 94 | 75 | 100 | 96 | 100 | 100 | 100 | 100 | 100 | 91 | 74 | 73 | 100 | 100 | 100 | 80 | inhibition [21]: 7.56%; residual activity [22]: 100%; residual activity [23]: 77%; % Inhibition of Control Values (Mean n=2) [24]: 3.2%; inhibition [25]: 60.7%; residual activity [26]: 62%; residual activity [27]: 92%; % Inhibition of Control Specific Binding (Mean n=2) [28]: 4.7%; residual activity [29]: 100%; residual activity [30]: 65%; EC50 [31]: > 5 µM (not active); % Inhibition of Control Specific Binding (Mean n=2) [32]: -8%; residual activity [33]: 89%; residual activity [34]: 100%; residual activity [35]: 70%; residual activity [36]: 91%; residual activity [37]: 100%; residual activity [38]: 96% |
